Laboratory results as given in patent US7820379B2, “Process for high throughput screening of CpG-based immuno-agonist/antagonist” (Coley Pharmaceutical GmbH, priority 2000, dated 2010).

Key:
Type in all cases: cell-based
[1] = tested on: Human peripheral blood mononuclear cells (PBMC); assay: IL-12 production in human PBMC; conditions: ODN titration, after 8 hours
Text: By iterative examination of the flanking sequences surrounding CG dinucleotides, CpG-motifs have been identified. Paradoxically, or by twist of nature, the human optimal CpG-motif, GTCGTT (SEQ ID NO:66), is different from the murine motif, GACGTT (SEQ ID NO:129). Human peripheral blood mononuclear cells (PBMC) (FIG. 10A) and murine splenocytes (FIG. 10B) were stimulated with ODN 2006 (filled circle, […], SEQ ID NO:112), ODN 2006-GC (open circle), ODN 1668 (filled triangle, […], SEQ ID NO:84) or ODN 1668-GC (open triangle, […], SEQ ID NO:85) at indicated concentrations and IL-12 production was monitored after 8 hours. […] It should also be noted that the Kac (concentration of half-maximal activation) of murine splenocytes for 1668 was greater than human PBMC for 2006 (compare FIG. 10A to FIG. 10B).

hTLR7 = molecular target: T1, hTLR7 (Homo sapiens, UniProt Q9NYK1); assay: IL-8 production in 293 cells transiently transfected with hTLR7; conditions: 293 cells transfected with hTLR7; ODN 2 μM, LPS 100 ng/ml
T1 construct: codes for a protein of 1049 amino acids; expressed in transfected cells; host or cells: human 293 fibroblasts (ATCC CRL-1573), transient
T1 sequence (Q9NYK1 27-1049): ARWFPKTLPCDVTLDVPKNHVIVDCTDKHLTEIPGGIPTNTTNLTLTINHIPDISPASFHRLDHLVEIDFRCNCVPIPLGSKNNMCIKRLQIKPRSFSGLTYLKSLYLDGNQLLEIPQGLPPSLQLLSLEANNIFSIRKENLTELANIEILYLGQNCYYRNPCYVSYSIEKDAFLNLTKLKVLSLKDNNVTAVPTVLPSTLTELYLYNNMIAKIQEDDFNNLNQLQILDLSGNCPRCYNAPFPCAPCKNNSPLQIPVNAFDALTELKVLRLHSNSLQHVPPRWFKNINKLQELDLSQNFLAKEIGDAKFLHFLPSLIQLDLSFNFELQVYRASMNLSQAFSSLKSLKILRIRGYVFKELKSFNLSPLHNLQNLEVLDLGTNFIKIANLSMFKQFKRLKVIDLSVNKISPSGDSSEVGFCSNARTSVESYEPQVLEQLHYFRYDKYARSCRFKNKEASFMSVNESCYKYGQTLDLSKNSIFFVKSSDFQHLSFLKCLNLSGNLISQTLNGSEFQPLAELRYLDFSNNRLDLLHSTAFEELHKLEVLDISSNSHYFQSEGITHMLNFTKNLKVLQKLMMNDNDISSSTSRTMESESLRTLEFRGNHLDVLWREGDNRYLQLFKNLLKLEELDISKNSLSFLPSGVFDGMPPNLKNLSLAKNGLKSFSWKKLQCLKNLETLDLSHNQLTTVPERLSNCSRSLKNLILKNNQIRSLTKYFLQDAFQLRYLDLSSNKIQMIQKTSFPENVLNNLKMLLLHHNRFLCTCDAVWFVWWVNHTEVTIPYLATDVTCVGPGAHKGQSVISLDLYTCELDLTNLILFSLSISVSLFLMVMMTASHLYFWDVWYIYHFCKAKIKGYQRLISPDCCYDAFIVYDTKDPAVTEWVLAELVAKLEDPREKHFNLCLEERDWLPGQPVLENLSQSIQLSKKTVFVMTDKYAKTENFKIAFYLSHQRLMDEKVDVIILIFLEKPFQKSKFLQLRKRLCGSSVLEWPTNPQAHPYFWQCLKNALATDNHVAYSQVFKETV
Description: (§1) The cloned human TLR7 and human TLR8 cDNA (our result) were cloned into the expression vector pcDNA3.1 (−) from Invitrogen using the NotI site. Utilizing a “gain of function” assay, hTLR7 and hTLR8 expression vectors were transiently expressed in human 293 fibroblasts (ATCC, CRL-1573) using the calcium phosphate method. Activation was monitored by IL-8 production after stimulus with CpG-ODN (2006 or 1668, 2 μM) or LPS (100 ng/ml).

hTLR8 = molecular target: T2, hTLR8 (Homo sapiens, UniProt Q9NR97); assay: IL-8 production in 293 cells transiently transfected with hTLR8; conditions: 293 cells transfected with hTLR8; ODN 2 μM, LPS 100 ng/ml
T2 construct: codes for a protein of 1041 amino acids; expressed in transfected cells; host or cells: human 293 fibroblasts (ATCC CRL-1573), transient
T2 sequence (Q9NR97 27-1041): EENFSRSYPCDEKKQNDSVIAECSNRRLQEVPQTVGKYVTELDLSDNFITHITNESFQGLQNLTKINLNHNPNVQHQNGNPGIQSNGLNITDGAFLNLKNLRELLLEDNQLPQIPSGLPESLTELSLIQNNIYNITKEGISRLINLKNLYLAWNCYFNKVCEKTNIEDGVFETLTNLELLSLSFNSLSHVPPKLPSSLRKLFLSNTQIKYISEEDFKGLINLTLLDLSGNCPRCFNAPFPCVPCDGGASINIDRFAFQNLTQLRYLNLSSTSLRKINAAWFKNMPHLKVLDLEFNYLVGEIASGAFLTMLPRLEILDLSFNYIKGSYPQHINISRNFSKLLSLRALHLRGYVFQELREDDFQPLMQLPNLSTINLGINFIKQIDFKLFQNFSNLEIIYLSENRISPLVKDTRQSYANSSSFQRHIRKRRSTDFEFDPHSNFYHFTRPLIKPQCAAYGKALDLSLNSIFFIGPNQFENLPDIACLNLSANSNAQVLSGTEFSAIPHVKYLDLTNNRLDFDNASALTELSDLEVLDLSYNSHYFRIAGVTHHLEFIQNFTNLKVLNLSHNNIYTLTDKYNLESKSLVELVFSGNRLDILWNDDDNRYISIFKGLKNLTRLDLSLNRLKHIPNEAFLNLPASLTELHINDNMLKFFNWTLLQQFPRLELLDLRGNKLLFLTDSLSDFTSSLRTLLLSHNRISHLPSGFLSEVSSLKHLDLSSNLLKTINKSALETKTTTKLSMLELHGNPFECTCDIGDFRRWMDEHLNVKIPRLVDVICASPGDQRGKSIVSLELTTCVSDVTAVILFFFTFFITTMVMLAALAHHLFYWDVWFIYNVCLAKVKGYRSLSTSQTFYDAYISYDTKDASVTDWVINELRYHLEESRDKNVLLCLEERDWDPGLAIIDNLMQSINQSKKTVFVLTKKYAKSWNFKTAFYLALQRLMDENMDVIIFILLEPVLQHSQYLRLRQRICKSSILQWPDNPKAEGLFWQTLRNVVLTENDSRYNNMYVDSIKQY
Description: as §1

human B cells = assay: Human B cell proliferation by 3H-thymidine uptake; conditions: purified human B cells, day two; E. coli DNA 50 μg/ml, ODN 2 μM
Text: Bacterial DNA has been described as a mitogen for both murine and human B cells. Although LPS is also mitogenic for murine B cells, it is generally accepted that LPS is not a mitogen for human B cells. […] B cell proliferation was monitored at day two by ^3H-thymidine uptake.

| Substance | IL-12 production [1] | activation monitored by IL-8 production (hTLR7) | activation monitored by IL-8 production (hTLR8) | B cell proliferation (3H-thymidine uptake) (human B cells) |
| --- | --- | --- | --- | --- |
| TCCATGAGCTTCCTGATGCT (listed as DNA, chemistry not fully specified) [ODN 1668-GC] | essentially negative | – | – | – |
| TCGTCGTTTTGTCGTTTTGTCGTT [ODN 2006] | induces IL-12 production | None of the stimuli used activated | None of the stimuli used activated | proliferate |
| lipopolysaccharide [LPS] | – | None of the stimuli used activated | None of the stimuli used activated | – |
| TCCATGACGTTCCTGATGCT (listed as DNA, chemistry not fully specified) [ODN 1668] | much less effective | None of the stimuli used activated | None of the stimuli used activated | – |
| TGCTGCTTTTGTGCTTTTGTGCTT (listed as DNA, chemistry not fully specified) [ODN 2006-GC] | essentially negative | – | – | not |
